According to patent US20220031710A1, “USE OF ERK5 INHIBITORS FOR TREATING GLIOMAS IN PEDIATRIC SUBJECTS” (UNIVERSITY OF PITTSBURGH - OF THE COMMONWEALTH SYSTEM OF …, priority 2019, published 2022):

Key:
[1] = tested on: MYC; experiment: Western blot of phospho MYC S62 and total MYC in DIPG cells; type: cell-based, human; conditions: DIPG-IV and SF8628 cells; 500 nM
Method: Cell pellets were lysed in PLC lysis buffer containing protease and phosphatase inhibitors (Roche Inc.). Protein lysates were quantified using the bicinchoninic acid (BCA) assay (Pierce Chemical Co., Rockford, Ill.). 30 μg of total protein lysate was loaded in 10% SDS-PAGE gels and electrophoresed. Proteins were transferred to PVDF membranes using a semi-dry transfer apparatus (Bio-Rad). Membranes were blocked for one hour and probed for various proteins overnight in 5% non-fat milk or 5% BSA in Tris Buffered Saline Solution, 0.5% Tween-20 (TBST) or Phosphate Buffered Saline Solution with 0.5% Tween-20 (PBST). Membranes were washed for 5 mins in TBST (3×) and incubated with horseradish peroxidase-conjugated antibodies specific for the primary antibody (BioRad Laboratories, Inc., CA, USA). Binding was detected using Chemiluminescence Reagent Plus (PerkinElmer Inc., MA, USA).

[2] = tested on: DIPG-007, DIPG-IV, SF8628 and DIPG-13p cells; experiment: Annexin-PI flow cytometry apoptosis assay; type: cell-based, human; conditions: for populations in early apoptosis, late apoptosis and necrosis / viable cells (Annexin negative, PI negative): 48 h, vs DMSO vehicle
Method: Apoptosis was quantified using the Pacific Blue Annexin V Apoptosis Detection Kit with propidium iodide (BioLegend, San Diego, Calif. Cat #640926). Analysis was performed at the Flow Cytometry Core, Rangos Research Center, UPMC Children's Hospital of Pittsburgh.

[3] = tested on: DIPG-13p cells xenograft; experiment: DIPG-13p orthotopic xenograft model; type: in vivo, mice; conditions: 50 mg/kg, 2 cycles of 5 days on 2 days off; DIPG-13p xenograft
Method: Paraffin embedded blocks were cut in 5 μm sections. Slides were processed as follows: de-waxed in xylene followed by rehydration in a standard alcohol series. Antigen retrieval was by pressure cooking for 20 minutes in citrate buffer (pH 6.0), followed by blocking of endogenous peroxidase in 3% H2O2. The antibodies were added and incubated overnight at 4° C. Antibodies were detected using a secondary-HRP labeled mouse or rabbit antibody detection system (Dako EnVision+ System-HRP cat #k4401, cat #k4403) followed by addition 3,3′-Diaminobenzidine (DAB) chromagen (Vector Labs) for visualization. Sections were counter-stained with hematoxylin (Fisher Scientific Inc., Canada) and slides dehydrated in 70, 80, and 100% ethanol and xylene. Slides were cover slipped and mounted in Permount (Fisher Scientific Inc.). Antibodies and concentrations for IHC are as follows: Ki67 (1:100, Dako, cat #F7268). All images were captured on a Leica DM 100 microscope using Leica Application Suite Software (Switzerland, Version 3.8.0).
All animal procedures were carried out ethically according to animal user protocols approved by Institutional Animal Care Committee (IACUC). 4-6 week-old non-obese diabetic severe combined immune deficiency male or female mice (NOD-SCID-Prkdc^scid) were injected with 1×10^5 SU-DIPG-13p cells or 1×10^5 SF8628 DIPG cells. […]

[4] = tested on: DIPG-IV cells; experiment: EC50 of ERK5-IN-1 in DIPG-IV cells expressing ERK5-HA, ERK5-HA T733E or MYC S62D; type: cell-based, human
Method: Wildtype human H3F3A cDNA was ligated with a puromycin selection marker and a self-cleaving T2A sequence using Gibson Assembly Cloning and cloned into pLV with an EF1a promoter. HA-RASAL1 (NM_001193520.1) with an N-terminal HA tag, MYC (NM_002467.4), or MAPK7 (ERK5, NM_139033) were ligated with T2A mCherry and cloned into pLV under the control of the EF1a promoter. Cloning and plasmid sequence validation were performed by VectorBuilder Services (Santa Clara, Calif. 95050). Site-directed mutagenesis was performed to generate H3F3A K27M, H3F3A G34R, MYC S62D, and ERK5 mutant constructs using the QuikChange II Site-Directed Mutagenesis Kit and manufacturer's protocol (Agilent, Cat #200523, Santa Clara, Calif. 95051). Lentiviral ERK5 GIPZ shRNA plasmids were purchased from Dharmacon (Lafayette, Colo. 80026, Cat #RHS4531-EG5598 glycerol set: V2LHS 202701, V3LHS_366737, V3LHS_366738, V3LHS_366740, V3LHS_640828, V3LHS_640830).
Direct cell counts were performed using the Countess II FL Automated Cell Counter (ThermoFisher Scientific). Alamar blue viability (ThermoFisher Scientific) and the 5-bromo-2′-deoxyuridine (BrdU) incorporated cell proliferation assay (Cell Signaling Technology Cat #6813) were performed using the manufacturer's standard protocol. EC50 curve analysis was performed using raw fluorescent Alamar blue values that were inputted into PRISM 7.0. […]

[5] = tested on: DIPG-007, DIPG-IV, SF8628 and DIPG-13p cells; experiment: Direct Trypan-Blue automated cell count of DIPG cells; type: cell-based, human
Method: Direct cell counts were performed using the Countess II FL Automated Cell Counter (ThermoFisher Scientific). Alamar blue viability (ThermoFisher Scientific) and the 5-bromo-2′-deoxyuridine (BrdU) incorporated cell proliferation assay (Cell Signaling Technology Cat #6813) were performed using the manufacturer's standard protocol. EC50 curve analysis was performed using raw fluorescent Alamar blue values that were inputted into PRISM 7.0. Drug concentrations were log 10 transformed and values normalized to percent viability with respect to vehicle treated cells. EC50 values were interpolated from a log inhibitor vs. normalized response with variable slope using a least square fit model.

[6] = target: ERK5 (Homo sapiens, UniProt Q13164); experiment: In vitro kinase assay of purified recombinant ERK5 and MYC; type: biochemical; set-up: purchased ThermoFisher Scientific A32872; conditions: 200 μM ATP, 30 minutes at 30° C.
Method: Purified active recombinant ERK5 protein was purchased from ThermoFisher Scientific (Cat #A32872) and purified recombinant MYC was purchased from Abcam (Cat #ab84132). Purified ERK5 and MYC were resuspended in 40 μl of 1× kinase buffer supplemented with 200 μM ATP, 0.25 μg substrate, and 1.0 μg purified recombinant and active kinase. Samples were incubated in the presence or absence of ERK5 inhibitors for 30 minutes at 30° C. The reaction was terminated with 20 μl 3×SDS sample buffer. Samples were then boiled at 100° C. for 5 minutes and then evaluated by western blotting using a phospho MYC ser62 antibody (1:1000). 1× Kinase Buffer recipe: 25 mM Tris (pH 7.5), 5 mM β-glycerophosphate, 2 mM DTT, 0.1 mM Na3VO4, 10 mM MgCl2.

ERK5, sequence (Q13164 whole entry): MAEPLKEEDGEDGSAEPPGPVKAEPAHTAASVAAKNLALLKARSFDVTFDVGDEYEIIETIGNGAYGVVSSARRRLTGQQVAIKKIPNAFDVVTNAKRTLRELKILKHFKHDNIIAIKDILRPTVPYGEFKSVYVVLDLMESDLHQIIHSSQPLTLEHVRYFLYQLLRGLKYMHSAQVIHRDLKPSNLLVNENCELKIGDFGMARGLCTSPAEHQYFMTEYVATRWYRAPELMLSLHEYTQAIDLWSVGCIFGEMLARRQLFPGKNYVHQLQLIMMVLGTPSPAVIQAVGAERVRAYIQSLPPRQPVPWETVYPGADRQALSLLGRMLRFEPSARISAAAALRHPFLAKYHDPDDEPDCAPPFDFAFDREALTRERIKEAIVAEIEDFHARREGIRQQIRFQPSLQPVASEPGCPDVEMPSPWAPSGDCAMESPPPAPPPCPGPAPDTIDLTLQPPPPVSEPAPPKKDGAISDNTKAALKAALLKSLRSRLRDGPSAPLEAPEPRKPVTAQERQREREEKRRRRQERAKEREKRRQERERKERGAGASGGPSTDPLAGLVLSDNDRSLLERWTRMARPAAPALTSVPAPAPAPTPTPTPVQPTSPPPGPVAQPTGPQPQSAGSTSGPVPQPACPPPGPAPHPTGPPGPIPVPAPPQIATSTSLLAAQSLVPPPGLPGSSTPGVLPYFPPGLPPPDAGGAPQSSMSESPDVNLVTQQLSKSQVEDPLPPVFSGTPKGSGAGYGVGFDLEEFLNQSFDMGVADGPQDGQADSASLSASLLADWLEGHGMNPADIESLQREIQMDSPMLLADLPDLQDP

## CCOc1cc(C(=O)N2CCC(N3CCN(C)CC3)CC2)ccc1Nc1ncc2c(n1)N(C1CCCC1)c1ccccc1C(=O)N2C [ERK5-IN-1, 11-cyclopentyl-2-[[2-ethoxy-4-[[4-(4-methyl-1-piperazinyl)-1-piperidinyl]carbonyl]phenyl]amino]-5,11-dihydro-5-methyl-6H-pyrimido[4,5b][1,4]benzodiazepin-6-one]
[1]
  phospho and total MYC: reduced
[2]; DIPG-007 and DIPG-IV cells
  populations in early apoptosis, late apoptosis and necrosis: increased
  viable cells (Annexin negative, PI negative): decreased
[2]; SF8628 and DIPG-13p cells
  populations in early apoptosis, late apoptosis and necrosis: increased
  viable cells (Annexin negative, PI negative): decreased
[2]; DIPG-007 and DIPG-IV cells, compared to controls
  rates of apoptosis: significantly higher rates of apoptosis
[2]; DIPG-13p and SF8628 cells
  apoptosis: induction of apoptosis
[3]
  median survival: 30 days
[4]; DIPG-IV cells expressing MYC S62D vs empty vector control
  resistance to ERK5-IN-1 (EC50 values): promoted resistance
[4]; DIPG-IV cells expressing wild-type HA-tagged ERK5 or constitutively active ERK5 T733E vs empty vector
  EC50 values: increased EC50 values
[5]; 500 nM, 9 days of treatment, DIPG-007, DIPG-IV, SF8628 cells, vs vehicle
  cell number: significant decreases in cell number
[5]; DIPG-13p and SF8628 cells
  cell growth: diminished cell growth
[6]
  Phosphorylation of MYC(S62): inhibited
